Data reported in US7202243B2, “Substituted imidazotriazines” (Bayer HealthCare AG, priority 2002, dated 2007).

Molecular target: T1, PDE 10A (Homo sapiens, UniProt Q9Y233)
T1 construct: is expressed recombinantly in full length in Sf9 insect cells; made in house; host or cells: Sf9 insect cells, Bac-to-Bac baculovirus expression system
Assay: Inhibition of PDE 10A (in vitro enzyme inhibition test, [3H]cAMP scintillation proximity assay)
Type: biochemical
Details: recombinant full-length PDE 10A expressed in Sf9 insect cells; substrate [5',8-3H] cAMP; 60 min at 20° C.
Experimental: 48 h after infection, the cells are harvested and suspended in 20 ml (per 1 l of culture) of lysis buffer (50 mM tris HCl, pH 7.4, 50 mM NaCl, 1 mM MgCl2, 1.5 mM EDTA, 10% glycerol plus 20 μl of Protease Inhibitor Cocktail Set III [CalBiochem, La Jolla, Calif. USA]). The cells are treated with ultrasound at 4° C. for 1 minute and subsequently centrifuged at 10 000 rpm for 30 minutes at 4° C. The supernatant (PDE 10A preparation) was collected and stored at −20° C.
The test substances are dissolved in 100% DMSO for the determination of their in vitro action on PDE 10A and serially diluted. […] 2 μl of the diluted substance solutions in each case are introduced into the hollows of microtiter plates (Isoplate; Wallac Inc., Atlanta, Ga.). Subsequently, 50 μl of a dilution of the PDE 10A preparation described above are added. The dilution of the PDE 10A preparation is chosen such that during the later incubation less than 70% of the substrate is reacted (typical dilution: 1:10 000; dilution buffer: 50 mM tris/HCl pH 7.5, 8.3 mM MgCl2, 1.7 mM EDTA, 0.2% BSA). The substrate, [5′,8-^3H] adenosine 3′,5′-cyclic phosphate (1 μCi/μl; Amersham Pharmacia Biotech., Piscataway, N.J.) is diluted 1:2000 with assay buffer (50 mM tris/HCl pH 7.5, 8.3 mM MgCl2, 1.7 mM EDTA) to a concentration of 0.0005 μCi/μl. The enzyme reaction is finally started by addition of 50 μl (0.025 μCi) of the diluted substrate. The test batches are incubated for 60 min at 20° C. and the reaction is stopped by addition of 25 μl of a suspension containing 18 mg/ml of Yttrium Scintillation Proximity Beads (Amersham Pharmacia Biotech., Piscataway, N.J.). The microtiter plates are sealed using a film and allowed to stand for 60 min at 20° C. Subsequently, the plates are measured for 30 s per hollow in a Microbeta scintillation counter (Wallac Inc., Atlanta, Ga.). IC50 values are determined by means of graphic plotting of the substance concentration against the percentage inhibition.

T1 sequence (Q9Y233 1-779 isoform Q9Y233-1): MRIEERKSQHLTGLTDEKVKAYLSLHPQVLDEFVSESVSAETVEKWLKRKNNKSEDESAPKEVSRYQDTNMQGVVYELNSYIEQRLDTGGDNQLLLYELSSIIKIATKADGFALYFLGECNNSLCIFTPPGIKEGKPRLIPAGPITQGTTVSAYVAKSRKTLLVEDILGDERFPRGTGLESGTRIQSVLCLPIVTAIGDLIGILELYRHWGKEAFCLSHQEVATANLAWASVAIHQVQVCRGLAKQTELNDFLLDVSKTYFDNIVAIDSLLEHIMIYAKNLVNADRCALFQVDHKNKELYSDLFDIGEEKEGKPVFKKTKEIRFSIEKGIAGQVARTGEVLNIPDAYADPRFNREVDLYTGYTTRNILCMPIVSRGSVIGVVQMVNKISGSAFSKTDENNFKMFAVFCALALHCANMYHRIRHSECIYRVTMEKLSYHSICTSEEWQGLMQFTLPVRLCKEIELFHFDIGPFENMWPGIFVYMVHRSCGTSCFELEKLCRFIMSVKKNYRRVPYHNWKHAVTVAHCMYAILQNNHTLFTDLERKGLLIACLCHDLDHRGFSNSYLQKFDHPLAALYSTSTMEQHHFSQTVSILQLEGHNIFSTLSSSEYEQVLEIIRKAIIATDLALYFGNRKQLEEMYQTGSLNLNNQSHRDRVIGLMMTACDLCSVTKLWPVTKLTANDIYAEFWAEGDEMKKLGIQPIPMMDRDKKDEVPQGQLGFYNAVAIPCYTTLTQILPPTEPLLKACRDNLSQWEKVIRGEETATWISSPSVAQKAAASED

SMILES	IC50
COc1cc(Oc2nc(-c3ccc(NC(C)=O)cc3)nn3c(C)nc(C)c23)cc(OC)c1OC [Example 2, N-{4-[5,7-Dimethyl-4-(3,4,5-trimethoxyphenoxy)imidazo[5,1-f][1,2,4]triazin-2-yl]-phenyl}acetamide]	37 nM
COc1cc(Oc2nc(-c3cccc(NC(C)=O)c3)nn3c(C)nc(C)c23)cc(OC)c1OC [Example 9, N-{3-[5,7-Dimethyl-4-(3,4,5-trimethoxyphenoxy)imidazo[5,1-f][1,2,4]triazin-2-yl]-phenyl}acetamide]	30 nM
COc1cc(Nc2nc(-c3cccc(NS(C)(=O)=O)c3)nn3c(C)nc(C)c23)cc(OC)c1OC [Example 11, N-(3-{5,7-Dimethyl-4-[(3,4,5-trimethoxyphenyl)amino]imidazo[5,1-f][1,2,4]triazin-2-yl}phenyl)methanesulfonamide]	43 nM
COc1cc(Nc2nc(-c3ccc(NC=O)cc3)nn3c(C)nc(C)c23)cc(OC)c1OC [Example 12, 4-{5,7-Dimethyl-4-[(3,4,5-trimethoxyphenyl)amino]imidazo[5,1-f][1,2,4]triazin-2-yl}phenylformamide]	8 nM
COc1cc(Nc2nc(-c3ccc(NC(=O)CO)cc3)nn3c(C)nc(C)c23)cc(OC)c1OC [Example 15, N-(4-{5,7-Dimethyl-4-[(3,4,5-trimethoxyphenyl)amino]imidazo[5,1-f][1,2,4]triazin-2-yl}phenyl)-2-hydroxyacetamide]	6 nM
